# Measurements taken from patent US10774051B2, “6-membered heterocyclic derivatives and pharmaceutical composition comprising the same” (Shionogi & Co., Ltd., priority 2015, dated 2020).
# Target: human P2X7 receptor (Homo sapiens, UniProt Q99572, R270H/Y155H)
# Assay: Evaluation of human P2X7 receptor inhibitory activity (Yo-Pro uptake, BzATP stimulation, FLIPR TETRA)
# Type: cell-based
# Details: 1321N1 cells stably expressing human P2X7 receptor; BzATP stimulation, Yo-Pro uptake; read-out: IC50 (antagonistic activity for the human P2X7 receptor)
# How it was run: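 Yo-Pro dye uptake triggered by BzATP was monitored by FLIPR in human P2X7-transfected 1321N1 cells (SNP variant) in HEPES-buffered HBSS, pH 7.4-7.5. Compound was dispensed 8 min post-stimulation, then signal read for 20 min; IC50 derived logistically from inhibition of the fluorescence range.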
row,SMILES,IC50 [nM]
1,CCc1cc(F)c(OC)cc1Nc1nc(=O)c(OC)cn1Cc1cc(F)cc(F)c1 [Compound I-0817],4
2,COc1cn(Cc2cc(F)cc(Cl)c2)c(Nc2cc(Cl)cc3[nH]ccc23)nc1=O [Compound I-0821],5
3,COc1cn(Cc2ccc(F)c(Cl)c2)c(Nc2ccc3oc(C)cc3c2C)nc1=O [Compound I-0825],9
4,COc1cn(Cc2ccc(F)c(Cl)c2)c(Nc2c(C)cc3oc(C)cc3c2C)nc1=O [Compound I-0833],39
5,Cc1cc(OC(F)F)c(C)cc1Nc1nc(=O)c(F)cn1Cc1cc(F)cc(F)c1 [Compound I-0836],2
6,Cc1ccc(-c2ncco2)cc1Nc1nc(=O)c(F)cn1Cc1ccc(F)c(Cl)c1 [Compound I-0849],3
7,COc1cn(Cc2cc(F)cc(F)c2)c(Nc2ccc3ncsc3c2C)nc1=O [Compound I-0857],26
8,COc1cn(Cc2ccccc2)c(Nc2ccc3nc(C)sc3c2C)nc1=O [Compound I-0858],10
9,COc1cn(Cc2cc(F)cc(F)c2)c(Nc2cc3c(cc2C)OCC3)nc1=O [Compound I-0865],8

# Same assay, conditions: antagonistic activity for the human P2X7 receptor; read-out: IC50
row,SMILES,IC50 [nM]
1,COc1cn(Cc2cc(F)c(F)c(F)c2)c(Nc2cc(OC(F)F)c(C)cc2C)nc1=O [Compound I-0805],< 10
2,COc1cn(Cc2cc(F)cc(F)c2)c(Nc2cc(C)c(OCC(F)(F)F)cc2C)nc1=O [Compound I-0806],10 to 100
3,COc1cn(Cc2ccc(F)c(Cl)c2)c(Nc2cc(C)c(OCC(F)(F)F)cc2C)nc1=O [Compound I-0807],10 to 100
4,COc1cn(Cc2ccc(Cl)s2)c(Nc2cc(C)c(C)cc2C)nc1=O [Compound I-0808],< 10
5,COc1cn(Cc2ccc(F)c(Cl)c2)c(Nc2cc(Cl)c(F)cc2C)nc1=O [Compound I-0809],10 to 100
6,COc1cn(Cc2ccc(F)c(F)c2)c(Nc2cc(Cl)c(F)cc2C)nc1=O [Compound I-0810],10 to 100
7,COc1cn(Cc2cc(F)cc(Cl)c2)c(Nc2cc(Cl)c(F)cc2C)nc1=O [Compound I-0811],10 to 100
8,COc1cn(Cc2cc(F)cc(F)c2)c(Nc2cc(Cl)c(F)cc2C)nc1=O [Compound I-0812],10 to 100
9,CCc1cc(F)c(OC)cc1Nc1nc(=O)c(OC)cn1Cc1ccccc1 [Compound I-0813],< 10
10,CCc1cc(F)c(OC)cc1Nc1nc(=O)c(OC)cn1Cc1ccc(F)c(Cl)c1 [Compound I-0814],< 10
11,CCc1cc(F)c(OC)cc1Nc1nc(=O)c(OC)cn1Cc1ccc(F)c(F)c1 [Compound I-0815],< 10
12,CCc1cc(F)c(OC)cc1Nc1nc(=O)c(OC)cn1Cc1cc(F)cc(Cl)c1 [Compound I-0816],< 10
13,COc1cn(Cc2ccccc2)c(Nc2cc(Cl)cc3[nH]ccc23)nc1=O [Compound I-0818],10 to 100
14,COc1cn(Cc2ccc(F)c(Cl)c2)c(Nc2cc(Cl)cc3[nH]ccc23)nc1=O [Compound I-0819],10 to 100
15,COc1cn(Cc2ccc(F)c(F)c2)c(Nc2cc(Cl)cc3[nH]ccc23)nc1=O [Compound I-0820],10 to 100
16,COc1cn(Cc2cc(F)cc(F)c2)c(Nc2cc(Cl)cc3[nH]ccc23)nc1=O [Compound I-0822],10 to 100
17,COc1cn(Cc2ccc(F)c(Cl)c2)c(Nc2cc3c(cc2C)OC(F)(F)C(F)(F)O3)nc1=O [Compound I-0823],100 to 500
18,COc1cn(Cc2ccc(F)c(Cl)c2)c(Nc2ccc3c(c2C)OC(F)(F)C(F)(F)O3)nc1=O [Compound I-0824],10 to 100
19,COc1nc2ccc(Nc3nc(=O)c(OC)cn3Cc3ccc(F)c(Cl)c3)c(C)c2s1 [Compound I-0826],10 to 100
20,COc1cn(Cc2ccccc2)c(Nc2cc(-c3ccccc3)ccc2C)nc1=O [Compound I-0827],10 to 100
21,COc1cn(Cc2ccc(F)c(Cl)c2)c(Nc2cc(-c3ccccc3)ccc2C)nc1=O [Compound I-0828],10 to 100
22,COc1cn(Cc2cc(F)cc(F)c2)c(Nc2cc(-c3ccccc3)ccc2C)nc1=O [Compound I-0829],10 to 100
23,COc1nc2ccc(Nc3nc(=O)c(OC)cn3Cc3cc(F)cc(F)c3)c(C)c2s1 [Compound I-0830],10 to 100

row,SMILES,IC50 [nM]
1,COc1ncccc1-c1ccc(C)c(Nc2nc(=O)c(OC)cn2Cc2cc(F)cc(F)c2)c1 [Compound I-0831],< 10
2,COc1ncccc1-c1ccc(C)c(Nc2nc(=O)c(OC)cn2Cc2cc(F)c(F)c(F)c2)c1 [Compound I-0832],< 10
3,Cc1cc(OC(F)F)c(C)cc1Nc1nc(=O)c(F)cn1Cc1ccc(F)c(Cl)c1 [Compound I-0834],< 10
4,Cc1cc(OC(F)F)c(C)cc1Nc1nc(=O)c(F)cn1Cc1ccc(F)c(F)c1 [Compound I-0835],< 10
5,Cc1cc(OC(F)F)c(C)cc1Nc1nc(=O)c(Cl)cn1Cc1ccc(F)c(Cl)c1 [Compound I-0837],< 10
6,Cc1cc(OC(F)F)c(C)cc1Nc1nc(=O)c(Cl)cn1Cc1ccc(F)c(F)c1 [Compound I-0838],< 10
7,Cc1cc(OC(F)F)c(C)cc1Nc1nc(=O)c(Cl)cn1Cc1cc(F)cc(F)c1 [Compound I-0839],< 10
8,COc1ccc(Nc2nc(=O)c(F)cn2Cc2ccc(F)c(Cl)c2)c(C)c1 [Compound I-0840],< 10
9,COc1ccc(Nc2nc(=O)c(F)cn2Cc2ccc(F)c(F)c2)c(C)c1 [Compound I-0841],< 10
10,COc1ccc(Nc2nc(=O)c(Cl)cn2Cc2ccc(F)c(Cl)c2)c(C)c1 [Compound I-0843],10 to 100
11,COc1ccc(Nc2nc(=O)c(Cl)cn2Cc2ccc(F)c(F)c2)c(C)c1 [Compound I-0844],< 10
12,COc1ccc(Nc2nc(=O)c(Cl)cn2Cc2cc(F)cc(F)c2)c(C)c1 [Compound I-0845],10 to 100
13,COc1ccc(Cl)c(Nc2nc(=O)c(OC)cn2Cc2cc(F)c(F)c(F)c2)c1 [Compound I-0846],< 10
14,COc1ccc(Nc2nc(=O)c(OC)cn2Cc2cc(F)c(F)c(F)c2)c(Cl)c1 [Compound I-0847],< 10
15,COc1cc(Cl)c(Nc2nc(=O)c(OC)cn2Cc2cc(F)c(F)c(F)c2)cc1OC [Compound I-0848],< 10
16,Cc1ccc(-c2ncco2)cc1Nc1nc(=O)c(F)cn1Cc1ccc(F)c(F)c1 [Compound I-0850],< 10
17,Cc1ccc(-c2ncco2)cc1Nc1nc(=O)c(F)cn1Cc1cc(F)cc(F)c1 [Compound I-0851],< 10
18,Cc1ccc(-c2ncco2)cc1Nc1nc(=O)c(Cl)cn1Cc1ccc(F)c(Cl)c1 [Compound I-0852],< 10
19,Cc1ccc(-c2ncco2)cc1Nc1nc(=O)c(Cl)cn1Cc1ccc(F)c(F)c1 [Compound I-0853],< 10
20,Cc1ccc(-c2ncco2)cc1Nc1nc(=O)c(Cl)cn1Cc1cc(F)cc(F)c1 [Compound I-0854],< 10
21,COc1cn(Cc2ccccc2)c(Nc2ccc3ncsc3c2C)nc1=O [Compound I-0855],10 to 100
22,COc1cn(Cc2ccc(F)c(Cl)c2)c(Nc2ccc3ncsc3c2C)nc1=O [Compound I-0856],10 to 100
23,COc1cn(Cc2ccc(F)c(Cl)c2)c(Nc2ccc3nc(C)sc3c2C)nc1=O [Compound I-0859],10 to 100

row,SMILES,IC50 [nM]
1,COc1cn(Cc2cc(F)cc(F)c2)c(Nc2ccc3nc(C)sc3c2C)nc1=O [Compound I-0860],10 to 100
2,Cc1ccc(-c2cscn2)cc1Nc1nc(=O)c(F)cn1Cc1ccc(F)c(F)c1 [Compound I-0861],< 10
3,CCOc1ccc(C)c(Nc2nc(=O)c(OC)cn2Cc2cc(F)c(F)c(F)c2)c1 [Compound I-0862],< 10
4,COc1cc(Nc2nc(=O)c(OC)cn2Cc2cc(F)c(F)c(F)c2)c(C)cc1F [Compound I-0863],< 10
5,COc1cn(Cc2ccc(F)c(Cl)c2)c(Nc2cc3c(cc2C)OCC3)nc1=O [Compound I-0864],< 10
6,COc1cn(Cc2cc(F)c(F)c(F)c2)c(Nc2cc3c(cc2C)OCC3)nc1=O [Compound I-0866],< 10
7,Cc1ccc(-c2cscn2)cc1Nc1nc(=O)c(F)cn1Cc1cc(F)cc(F)c1 [Compound I-0867],< 10
8,CCOc1cc(C)c(Nc2nc(=O)c(OC)cn2Cc2cc(F)c(F)c(F)c2)cc1F [Compound I-0868],10 to 100
9,COc1cn(Cc2cc(F)c(F)c(F)c2)c(Nc2cc(OC(F)(F)F)ccc2C)nc1=O [Compound I-0869],10 to 100
10,COc1cn(Cc2ccccc2)c(Nc2cc(OC(F)F)ccc2C)nc1=O [Compound I-0870],10 to 100
11,COc1cn(Cc2ccc(F)c(Cl)c2)c(Nc2cc(OC(F)F)ccc2C)nc1=O [Compound I-0871],10 to 100
12,COc1cn(Cc2cc(F)cc(Cl)c2)c(Nc2cc(OC(F)F)ccc2C)nc1=O [Compound I-0872],10 to 100
13,COc1cn(Cc2ccc(F)c(F)c2)c(Nc2cc(OC(F)F)ccc2C)nc1=O [Compound I-0873],10 to 100
14,COc1cn(Cc2cc(F)cc(F)c2)c(Nc2cc(OC(F)F)ccc2C)nc1=O [Compound I-0874],10 to 100
15,COc1cn(Cc2ccccc2)c(Nc2cc(OC(F)F)c(C)cc2C)nc1=O [Compound I-0875],10 to 100
16,COc1cn(Cc2ccc(F)c(Cl)c2)c(Nc2cc(OC(F)F)c(C)cc2C)nc1=O [Compound I-0876],< 10
17,COc1cn(Cc2cc(F)cc(Cl)c2)c(Nc2cc(OC(F)F)c(C)cc2C)nc1=O [Compound I-0877],10 to 100
18,COc1cn(Cc2ccc(F)c(F)c2)c(Nc2cc(OC(F)F)c(C)cc2C)nc1=O [Compound I-0878],< 10
19,COc1cn(Cc2cc(F)cc(F)c2)c(Nc2cc(OC(F)F)c(C)cc2C)nc1=O [Compound I-0879],< 10
20,COc1cn(Cc2ccc(F)c(Cl)c2)c(Nc2cccc3c2ccc(=O)n3C)nc1=O [Compound I-0881],100 to 500
21,COc1cn(Cc2cc(F)cc(F)c2)c(Nc2cccc3c2ccc(=O)n3C)nc1=O [Compound I-0882],500 to 1000
22,COc1cn(Cc2ccccc2)c(Nc2cc(N3CCCC3)ccc2C)nc1=O [Compound I-0883],10 to 100
